This note sets out measurements from US11612586B2, “Indole regulation of antigen presenting cells” (THE TEXAS A&M UNIVERSITY SYSTEM, priority 2016, dated 2023).

Each structure is given as a SMILES string.

Common to all, as to type: cell-based, mouse
The subject of one experiment is TGF-β. As to the kind of experiment: TGF-β production by BMDC cultures (ELISA). The settings on record: indole-conditioned DCs. The procedure: To determine whether this was a specific downregulation of pro-inflammatory cytokines, production of the canonical DC-produced anti-inflammatory cytokines, IL-10 and TGF-β, was also examined.
Cytokine concentration in the supernatant of BMDC cultures was assessed using commercially available ELISA kits for IL-10 (Peprotech) and TGF-β (eBioscience) per the manufacturer's instructions.
Background: An ELISA detects its analyte on a solid surface through an enzyme-linked reagent.

Experiment [1] has as its system naïve CD4+CD25− T cells. The experiment is described as follows: DC-T cell co-culture, polyclonal stimulation: Foxp3+ Treg induction. The following applies: naïve T cells co-cultured 72 hours with BMDCs conditioned with indole. The procedure: FIG. 15 is a set of FACS plots showing that indole-conditioned DCs preferentially induce Foxp3+ Tregs (polyclonal stimulation). Naïve wild-type CD4+CD25− T cells were sorted and co-cultured with indole- or DMF-conditioned BMDCs. Cells were cultured together for 72 hours in the presence of soluble α-CD3 (5 ug/ml) as well as TGF-β (2 ng/ml) with or without IL-2 (100 U/ml). Subsequently, cells were stained for the transcription factor Foxp3 and analyzed by flow cytometry. Shaded gray histograms represent unstained controls. Representative data from one of four experiments is shown.
(§1) To investigate whether indole-conditioned DCs preferentially induce Tregs, a co-culture system using FACS-sorted wild-type naïve CD4+CD25− T cells was employed. These naïve T cells were activated by antibodies against CD3 and CD28 in the presence of indole-conditioned BMDCs and cultured for 72 hours. Under this platform for polyclonal stimulation, a 2-fold increase in Treg induction in indole-DC cultures compared to controls was observed (FIG. 15). Additionally, the inventors pursued the same question in a more physiologically relevant model; i.e., under monoclonal T cell stimulation. […]

Experiment [2] has as its system naïve CD4+CD25− T cells. The experiment is described as follows: DC-T cell co-culture, monoclonal (OT-II, OVA323-339) stimulation: Foxp3+ Treg induction. As for the experimental part: FIG. 16 graphically illustrates that indole-conditioned DCs preferentially induce Foxp3+ Tregs (monoclonal stimulation). Naïve CD4+CD25− T cells from OT-II TCR transgenic mice were isolated and labeled with cell proliferation dye. Naïve T cells were then co-cultured with OVA323-339 peptide-loaded BMDCs for 72 hours in the presence of TGF-β as indicated. BMDCs were previously treated with indole, RA, or DMF from day 3. Following 3 days of co-culture, surface and intracellular staining was performed for flow cytometric analysis. The mean percentage of Foxp3-positive […] from four independent experiments is shown. * indicates p<0.05 for one-way ANOVA followed by Dunnett's post-test.
FIGS. 20A and 20B graphically illustrate that T cell skewing mediated by indole-conditioned DCs is AhR-independent. BMDCs were differentiated from WT or AhR-KO mice and conditioned with indole, RA, or DMF from day 3. DCs were then loaded with OVA323-339 and co-cultured with naïve CD4+CD25− T cells from OT-II transgenic mice for 72 hours. For Th1 cultures, T cells were restimulated with PMA and ionomycin in the presence of golgiplug for the last 5 hours of culture. Subsequently, all cultures were stained and analyzed by flow cytometry for Foxp3 to identify Tregs or (B) IFNγ to identify Th1 cells.
as §1

For the compound `c1ccc2[nH]ccc2c1` [Indole, indole], the TGF-β production result in the experiment with TGF-β is given as “Neither IL-10 nor TGF-β production were affected”. Besides, the “increase in Treg induction compared to controls” value in the experiment with naïve CD4+CD25− T cells [1] was found to be 2 fold. The “Treg induction above solvent controls” value is “Significance was not reached” with naïve CD4+CD25− T cells [2] (BMDCs conditioned with indole, exogenous TGF-β absent or 2 ng/ml); 3.5 fold in the experiment on naïve CD4+CD25− T cells [2] (OT-II T cells with OVA-loaded BMDCs conditioned with indole, TGF-β at 10 and 30 ng/ml). In addition, the “AhR dependence of Treg skewing” value in the experiment with naïve CD4+CD25− T cells [2] (indole-conditioned BMDCs from wild-type or AhR−/− mice) was “entirely independent of AhR”.
